According to patent US10981932B2, “Macrocyclic indole derivatives” (Bayer Aktiengesellschaft, priority 2016, dated 2021):
Counter-ions that a name gives are not always drawn. Like-named read-outs stand apart in the source and are kept apart here.

Legend:
[1] = target: T1, BCL-XL (Homo sapiens, UniProt Q07817); assay: Protein-protein interaction assay BCL-XL/Bad BH3 peptide (BCL-XL assay), TR-FRET; format: binding; conditions: His-BCL-XL / Bad BH3-derived peptide
T1 construct: BCL-XL (amino acids 1-212, C-terminal fused to a hexahistidine (6×His) tag); purchased BPS Bioscience (San Diego, Calif., USA); host or cells: E. coli
Protocol: Protein-Protein Interaction Assay: BCL-XL/Bad BH3 Peptide (BCL-XL Assay)
The dose-dependent inhibition by the compounds described in this invention of the interaction between […] and the BH3 domain of Bad (both human) was determined using a steady state binding competition assay with time-resolved fluorescence energy transfer (TR-FRET) readout. For that purpose BCL-2 (amino acids 1-211, C-terminal fused to a hexahistidine (6×His) tag (SEQ ID NO: 3) and a synthetic Bad BH3-derived peptide of sequence Biotin-PEG2-PEG2-NLWAAQRYGRELRR-NIe-SDEFVDSFKK-amide (SEQ ID NO: 2) served as protein receptor and tracer ligand respectively. The recombinant BCL-2 protein (expressed in E. coli) was purchased from BPS Bioscience (San Diego, Calif., USA). The Bad BH3-derived peptide can be obtained from e.g. Biosyntan (Berlin, Germany).
In the assay 11 different concentrations of each compound (0.1 nM, 0.33 nM, 1.1 nM, 3.8 nM, 13 nM, 44 nM, 0.15 μM, 0.51 μM, 1.7 μM, 5.9 μM and 20 μM) were typically measured as duplicates in the same microtiter plate. For that, 100-fold concentrated DMSO solutions were prepared by serial dilutions (1:3.4) of a 2 mM stock solution in a clear, 384-well microtiter plate (Greiner Bio-One, Frickenhausen, Germany). From there, 50 nl were transferred in a dark test plate (Greiner Bio-One. Frickenhausen, Germany). The assay was initiated by addition of 2 μl of a 2,5-fold concentrated Hs-BCL-XL solution (usually for a 1 nM end concentration in 5 μl reaction volume) in aqueous assay buffer [50 mM Tris/HCl pH 7, 100 mM sodium chloride (NaCl), 50 mM potassium fluoride (KF), 0.005% Tween-20, 2 mM DTT, 0.1% bovine gamma globulin (BGG)] to the compounds in the assay plate. This was followed by a 10-minute incubation step at 22° C. for pre-equilibration of the putative complex between His-BCL-XL and the compounds.
The mixture was incubated in the dark for one hour at 22° C. and then overnight at 4° C. The formation of BCL-XL/Bad complexes was determined by measuring the resonance energy transfer of the anti-His- Eu-cryptate antibody to the streptavidin-XL665 present in the reaction. For that purpose, the fluorescence emission at 620 nm and 665 nm after excitation at 330-350 nm was measured in a TR-FRET measuring instrument, for instance a Rubystar or a Pherastar (both from BMG Lab Technologies, Offenburg, Germany) or a Viewlux (Perkin-Elmer). The ratio of the emission at 665 nm and at 622 nm was used as indicator of the amount of BCL-XL/Bad complexes present.
The resulting data (ratio) were normalized, taking 0% inhibition as the mean value of control measurements (usually 32 data points) where all reagents were included. In this case 50 nl DMSO were used instead of compounds. A 100% inhibition corresponded to the mean value of control measurements (usually 32 data points) where all reagents except BCL-XL were included. IC50 values were determined by regression analysis based on a 4 parameter equation (minimum, maximum, IC50, Hill; Y=Max+(Min−Max)/(1+(X/IC50)^Hill) using the Screener Software (Genedata).

[2] = system: OPM2; assay: Anti-proliferative effect (CellTiter-Glo, 72 h), OPM2; format: cell-based; conditions: OPM2 cells, median, read-out: IC50 antiproliferation assay OPM2 [M] (median)
Method in brief: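 Luminescence from CellTiter-Glo, read 10 min after reagent addition, reports viable cell content after 72 h of compound treatment at 37 °C. A reference plate read at day 0 gives the starting baseline.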

T1 sequence (Q07817 1-212): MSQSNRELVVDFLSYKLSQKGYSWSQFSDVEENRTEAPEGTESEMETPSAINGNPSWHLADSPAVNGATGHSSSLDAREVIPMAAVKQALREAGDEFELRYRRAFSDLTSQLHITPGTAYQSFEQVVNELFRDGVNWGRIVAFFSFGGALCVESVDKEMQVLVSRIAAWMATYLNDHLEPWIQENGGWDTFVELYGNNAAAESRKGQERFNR

Compound | IC50 [1] [µM] | IC50 ([2]; Homo sapiens, OPM-2, 72 h) [M] | IC50 [2] [M]
COCCn1nc2c(c1CN1CCOCC1)-c1cccc3c(CCCOc4cccc5ccccc45)c(C(=O)O)n(c13)CCCN(C)C2 (single isomer, unassigned; enantiomer 1) [Example 057, 10-(2-methoxyethyl)-7-methyl-11-(morpholin-4-ylmethyl)-1-[3-(naphthalen-1-yloxy)propyl]-4,5,6,7,8,10-hexahydropyrazolo[3′,4′:7,8][1,5]diazecino[9,10,1-hi]indole-2-carboxylic Acid (Enantiomer 1)] | > 20 | > 3.3e-05 | 
Cc1c2c(nn1C1CC1)COCCCCn1c(C(=O)O)c(CCCOc3cccc4ccccc34)c3cccc-2c31 (single isomer, unassigned; enantiomer 1) [Example 093, 2-cyclopropyl-3-methyl-7-[3-(naphthalen-1-yloxy)propyl]-2,10,11,12,13,15-hexahydropyrazolo[4′,3′:9,10][1,6]oxazacycloundecino[8,7,6-hi]indole-8-carboxylic acid-N-ethylethanamine Salt (Enantiomer 1)] | > 20 |  | 
COCCn1nc2c(c1C1CC1)-c1cccc3c(CCCOc4cccc5ccccc45)c(C(=O)O)n(c13)CCCCOC2 (single isomer, unassigned; enantiomer 1) [Example 085, 3-Cyclopropyl-2-(2-methoxyethyl)-7-[3-(naphthalen-1-yloxy)propyl]-2,10,11,12,13,15-hexahydropyrazolo[4′,3′:9,10][1,6]oxazacycloundecino[8,7,6-hi]indole-8-carboxylic acid-N-ethylethanamine Salt (Enantiomer 1)] | > 20 |  | 
CCc1c2c(nn1C)CN(C)CCCn1c(C(=O)O)c(CCCOc3cccc4ccccc34)c3cccc-2c31 (racemic) [Example 141, (rac)-11-ethyl-7,10-dimethyl-1-[3-(1-naphthyloxy)propyl]-4,5,6,7,8,10-hexahydropyrazolo[3′,4′:7,8][1,5]diazecino[9,10,1-hi]indole-2-carboxylic Acid] | > 20 | 9.12e-06 | 
Cn1nc(COc2ccc(N3CCN(C(=O)C4CC4)CC3)cc2)c2c1COCCCCn1c(C(=O)O)c(CCCOc3cccc4ccccc34)c3cccc-2c31 (single isomer, unassigned; enantiomer 1) [Example 1-22, 3-({4-[4-(cyclopropylcarbonyl)piperazin-1-yl]phenoxy}methyl)-1-methyl-7-[3-(naphthalen-1-yloxy)propyl]-1,10,11,12,13,15-hexahydropyrazolo[4′,3′:9,10][1,6]oxazacycloundecino[8,7,6-hi]indole-8-carboxylic Acid (Enantiomer 1)] | > 20 |  | 2.56e-06
Cc1ccc2c(CCCOc3cccc4c3CCCC4)c(C(=O)O)n3c2c1-c1c(C)nn(C)c1COCCCC3 (racemic) [Example 039, (rac)-1,3,4-trimethyl-7-[3-(5,6,7,8-tetrahydronaphthalen-1-yloxy)propyl]-110,11,12,13,15-hexahydropyrazolo[4′3′:9,10][1,6]oxazacycloundecino[8,7,6-hi]indole-8-carboxylic Acid] | > 20 |  | 
CC(C)c1c2c(nn1C)CN(C)CCCn1c(C(=O)O)c(CCCOc3cccc4ccccc34)c3cccc-2c31 (racemic) [Example 113, (rac)-7,10-dimethyl-1-[3-(naphthalen-1-yloxy)propyl]-11-(propan-2-yl)-4,5,6,7,8,10-hexahydropyrazolo[3′,4′:7,8][1,5]diazecino[9,10,1-hi]indole-2-carboxylic Acid] | > 20 | 1.42e-05 | 
CCc1c2c(nn1C)COCCCCn1c(C(=O)O)c(CCCOc3cccc4ccccc34)c3ccc(C)c-2c31 (racemic) [Example 153, (rac)-3-Ethyl-2,4-dimethyl-7-[3-(1-naphthyloxy)propyl]-2,10,11,12,13,15-hexahydropyrazolo[4′,3′:9,10][1,6]oxazacycloundecino[8,7,6-hi]indole-8-carboxylic Acid] | > 20 | 8.4e-06 | 
Cc1c2c(nn1C)COCCCCn1c(C(=O)O)c(CCCOc3cccc4ccccc34)c3cccc-2c31 (racemic) [Example 1-36, (rac)-2,3-dimethyl-7-[3-(naphthalen-1-yloxy)propyl]-2,10,11,12,13,15-hexahydropyrazolo[4′,3′:9,10][1,6]oxazacycloundecino[8,7,6-hi]indole-8-carboxylic Acid] | > 20 | 1.01e-05 | 
Cc1nn(C)c2c1-c1cccc3c(CCCOc4cccc5ccccc45)c(C(=O)O)n(c13)CCCCOCC2 (racemic) [Example 017, (rac)-1,3-dimethyl-7-[3-(1-naphthyloxy)propyl]-10,11,12,13,15,16-hexahydro-1H-pyrazolo[4′,3′:9,10][1,6]oxazacyclododecino[8,7,6-hi]indole-8-carboxylic Acid] | > 20 | 2.78e-05 | > 3.3e-05
CCn1nc2c(c1C1CC1)-c1cccc3c(CCCOc4cccc5ccccc45)c(C(=O)O)n(c13)CCCCOC2 (single isomer, unassigned; enantiomer 1) [Example 082, 3-cyclopropyl-2-ethyl-7-[3-(naphthalen-1-yloxy)propyl]-2,10,11,12,13,15-hexahydropyrazolo[4′,3′:9,10][1,6]oxazacycloundecino[8,7,6-hi]indole-8-carboxylic acid-N-ethylethanamine Salt (Enantiomer 1)] | > 20 |  | 
Cc1nn(C)c2c1-c1cccc3c(CCCOc4cccc5cc(Cl)ccc45)c(C(=O)O)n(c13)CCCCOC2 (single isomer, unassigned; enantiomer 1) [Example 041, 7-{3-[(6-chloronaphthalen-1-yl)oxy]propyl}-1,3-dimethyl-1,10,11,12,13,15-hexahydropyrazolo[4′,3′:9,10][1,6]oxazacycloundecino[8,7,6-hi]indole-8-carboxylic acid-N-ethylethanamine Salt (Enantiomer 1)] | > 20 |  | 
Cc1nn(C)c2c1-c1cccc3c(CCCOc4cccc5cc(F)ccc45)c(C(=O)O)n(c13)CCCCOC2 (single isomer, unassigned; enantiomer 1) [Example 019, 7-{3-[(6-fluoronaphthalen-1-yl)oxy]propyl}-1,3-dimethyl-1,10,11,12,13,15-hexahydropyrazolo[4′,3′:9,10][1,6]oxazacycloundecino[8,7,6-hi]indole-8-carboxylic Acid-N-ethylethanamine Salt (Enantiomer 1)] | > 20 |  | 
COCCn1nc2c(c1C)-c1cccc3c(CCCOc4cccc5ccccc45)c(C(=O)O)n(c13)CCCCOC2 (single isomer, unassigned; enantiomer 1) [Example 107, 2-(2-methoxyethyl)-3-methyl-7-[3-(naphthalen-1-yloxy)propyl]-2,10,11,12,13,15-hexahydropyrazolo[4′,3′:9,10][1,6]oxazacycloundecino[8,7,6-hi]indole-8-carboxylic acid-N-ethylethanamine Salt (Enantiomer 1)] | > 20 |  | 
Cc1ccc2c(CCCOc3cccc4ccccc34)c(C(=O)O)n3c2c1-c1c(nn(C)c1C)CN(C)CCC3 (single isomer, unassigned; enantiomer 1) [Example 073, 7,10,11,12-tetramethyl-1-[3-(naphthalen-1-yloxy)propyl]-4,5,6,7,8,10-hexahydropyrazolo[3′,4′:7,8][1,5]diazecino[9,10,1-hi]indole-2-carboxylic Acid (Enantiomer 1)] | > 20 |  | 
